These results are taken from patent US20220153780A1, “SALT FORMS OF S-(N, N-DIETHYLCARBAMOYL)GLUTATHIONE” (Tonix Pharma Holdings Limited, priority 2019, published 2022).

The subject of assay [1] is alcohol-preferring rats (P rats). Briefly: 2-hour ethanol intake by adult male P rats after IP carbamathione. In kind it is in vivo. How it is done:
(§1) The efficacy of carbamathione in reducing ethanol intake of rats was assessed. Adult male alcohol-preferring rats (P rats) and high alcohol-drinking-1 (HAD1) rats (˜75 days of age at the start) were used in this study. These rats underwent an 8-week acquisition/acclimation period of concurrent free-choice access to 15% and 30% ethanol. Animals were initiated with 24-hour access, which was titrated down to 2 hours per day for 5 days (Monday-Friday)/week access. Ethanol access began at the beginning of the dark cycle (10:00 h) in a room maintained on a reverse dark-light cycle (10:00 h to 22:00 h lights out).
(§2) After the acquisition period, the animals underwent three weeks of testing. Four doses were tested: 0, 100, 200, and 400 mg/kg/day. Sterile isotonic (0.9% normal) saline with 0.25% Tween® 80 was used as the vehicle for all doses. Injection solutions were prepared approximately 1 hour prior to each administration.
(§3) The carbamathione solution was maintained at −20° C. until mixing the solutions each day. Adding the carboxyl-associated compound helped dissolve the carbamathione solid, which was pulverized by mortar and pestle with 50 μl Tween® 80, resulting in a pH of 3.5. […] Doses were calculated at 3 ml/kg to allow for injection volume of 1.5 ml per 500 g rat. […]
(§4) Data were analyzed by Dose, by Test Day, and 2-way mixed ANOVAs on each rat line, followed by Dunnett t-test planned comparisons.

For assay [2], the system named is high alcohol-drinking-1 (HAD1) rats. Briefly: 2-hour ethanol intake by adult male HAD1 rats after IP carbamathione. In kind it is in vivo. The note with it: IP 100, 200, 400 mg/kg, saline with 0.25% Tween 80 vehicle. How it is done: as §1, §2, §3, §4

For `CCN(CC)C(=O)SCC(NC(=O)CCC(N)C(=O)O)C(=O)NCC(=O)O` (stereo not drawn) [carbamathione, S—(N,N-diethylcarbamoyl)glutathione], the “effect on 2-hour ethanol intake” value in assay [1] (IP 100, 200, 400 mg/kg, saline with 0.25% Tween 80 vehicle) is listed as “modest positive effect”; in assay [2], “no effect”. Further, in assay [1] (highest dose (400 mg/kg/day IP)), the “2 h ethanol intake, Dunnett's t-test for main effect of dose” value was “significant effect”.
